Reference: US20220411419A1, “SMALL MOLECULE MODULATORS OF MHC-I” (RetroVirox, Inc., priority 2018, published 2022)

Experiments:
[1] = system: downmodulation of MHC-I molecules expressed on the surface of HIV infected SupT1 cells; assay: cells; conditions: for EC50: Human immunodeficiency virus 1, SUP-T1, read-out: EC50 for inhibition of MHC-I downmodulation utilizing the R1 parameter; for activity at 100 µM: Human immunodeficiency virus 1, SUP-T1, read-out: R1 @ 100 μM (R1 value for MHC-I downmodulation as % of the vehicle control)
in vitro = conditions: human, uninfected SupT1 cells

Row | Compound | EC50 [1] [nM] | CC50 at 48 h (in vitro) [µM] | activity at 100 µM [1] [%] | CC50 (in vitro) [µM]
1 | CCc1ccc(NC(=O)COc2cccc3c2OC(C)(C)C3)nc1C [Compound 75, 2-((2,2-Dimethyl-2,3-dihydrobenzofuran-7-yl)oxy)-N-(5-ethyl-6-methylpyridin-2-yl)acetamide] | 210 | 120 |  | 
2 | CC1(C)Cc2cccc(OCC(=O)Nc3cccc4cccnc34)c2O1 [Compound 178, 2-((2,2-Dimethyl-2,3-dihydrobenzofuran-7-yl)oxy)-N-(quinolin-8-yl) acetamide] | > 25000 | > 25 | 20 | > 25
3 | Cc1csc(N(Cc2cccnc2)C(=O)COc2cccc3c2OC(C)(C)C3)n1 [Compound 34, 2-((2,2-Dimethyl-2,3-dihydrobenzofuran-7-yl)oxy)-N-(4-methylthiazol-2-yl)-N-(pyridin-3-ylmethyl)acetamide] | 1400 | 12 |  | 
4 | CC1(C)Cc2cccc(OCC(=O)N(c3ccccc3)c3nc4ccccc4s3)c2O1 [Compound 98, N-(Benzo[d]thiazol-2-yl)-2-((2,2-dimethyl-2,3-dihydrobenzofuran-7-yl)oxy)-N-phenylacetamide] | 29000 | > 90 |  | 
5 | COc1cccc(OC)c1OCC(=O)N(C)c1nc2c(s1)CCCC2 [Compound 131, 2-(2,6-Dimethoxyphenoxy)-N-methyl-N-(4,5,6,7-tetrahydrobenzo[d]thiazol-2-yl)acetamide] | 2600 | ~125 |  | 
6 | Cc1cccc(OCC(=O)N(C)c2nc3c(s2)CCCC3)c1C [Compound 114, 2-(2,3-Dimethylphenoxy)-N-methyl-N-(4,5,6,7-tetrahydrobenzo[d]thiazol-2-yl)acetamide] | 1200 | > 125 |  | 
7 | CN(C(=O)COc1ccccc1C(F)(F)F)c1nc2c(s1)CCCC2 [Compound 160, N-Methyl-N-(4,5,6,7-tetrahydrobenzo[d]thiazol-2-yl)-2-(2-(trifluoromethyl)phenoxy)acetamide] | 280 | > 125 |  | 
8 | COc1ccccc1OCC(=O)Nc1nc(C)c(C)s1 [Compound 186, N-(4,5-Dimethylthiazol-2-yl)-2-(2-methoxyphenoxy)acetamide] | ≥ 25000 | > 100 | 18 | > 100
9 | Cc1csc(N(C(=O)COc2cccc3c2OC(C)(C)C3)c2ccccc2C)n1 [Compound 60, 2-((2,2-Dimethyl-2,3-dihydrobenzofuran-7-yl)oxy)-N-(4-methylthiazol-2-yl)-N-(o-tolyl)acetamide] | 3800 | > 100 |  | 
10 | Cc1cnc(NC(=O)COc2cccc3c2OC(C)(C)C3)cn1 [Compound 9, 2-((2,2-Dimethyl-2,3-dihydrobenzofuran-7-yl)oxy)-N-(5-methylpyrazin-2-yl)acetamide] | 500 | > 125 |  | 
11 | Cc1csc(N(Cc2ccccc2)C(=O)COc2cccc3c2OC(C)(C)C3)n1 [Compound 159, N-Benzyl-2-((2,2-dimethyl-2,3-dihydrobenzofuran-7-yl)oxy)-N-(4-methylthiazol-2-yl)acetamide] | 180 | > 90 |  | 
12 | Cc1ccc(CN(C(=O)COc2cccc3c2OC(C)(C)C3)c2ccc(C)cn2)cc1 [Compound 47, 2-((2,2-Dimethyl-2,3-dihydrobenzofuran-7-yl)oxy)-N-(4-methylbenzyl)-N-(5-methylpyridin-2-yl)acetamide] | 5500 | > 125 |  | 
13 | COc1ccccc1OCC(=O)Nc1nc(C)cs1 [Compound 190, 2-(2-Methoxyphenoxy)-N-(4-methylthiazol-2-yl)acetamide] | > 25000 | > 100 | 34 | > 100
14 | CC1(C)Cc2cccc(OCC(=O)Nc3nc4c(s3)CCCCC4)c2O1 [Compound 3, 2-((2,2-Dimethyl-2,3-dihydrobenzofuran-7-yl)oxy)-N-(5,6,7,8-tetrahydro-4H-cyclohepta[d]thiazol-2-yl)acetamide] | 200 | > 100 |  | 
15 | COc1ccccc1OCC(=O)Nc1nc2c(C)cccc2s1 [Compound 189, 2-(2-Methoxyphenoxy)-N-(4-methylbenzo[d]thiazol-2-yl)acetamide] | > 25000 | > 100 | 39 | > 100
16 | COc1ccc(C)cc1OCC(=O)N(C)c1nc2c(s1)CCCC2 [Compound 122, 2-(2-Methoxy-5-methylphenoxy)-N-methyl-N-(4,5,6,7-tetrahydrobenzo[d]thiazol-2-yl)acetamide] | 5000 | > 125 |  | 
17 | C=Cc1ccc(N(C)C(=O)COc2cccc3c2OC(C)(C)C3)nn1 [Compound 82, 2-((2,2-Dimethyl-2,3-dihydrobenzofuran-7-yl)oxy)-N-methyl-N-(6-vinylpyridazin-3-yl)acetamide] | 5900 | > 125 |  | 

Row | Compound | EC50 [1] [nM] | CC50 at 48 h (in vitro) [µM] | activity at 100 µM [1] [%] | CC50 (in vitro) [µM]
18 | CC(C)(C)OC(=O)N1CCC(CNC(=O)c2cnc(NC(=O)COc3cccc4c3OC(C)(C)C4)s2)C1 (stereo not shown) [Compound 157, tert-Butyl 3-((2-(2-((2,2-dimethyl-2,3-dihydrobenzofuran-7-yl)oxy)acetamido)thiazole-5-carboxamido)methyl)pyrrolidine-1-carboxylate] | > 25000 | > 90 | ≥ 100 | > 90
19 | CN(C(=O)COc1cccc2c1OCCO2)c1nc2c(s1)CCCC2 [Compound 126, 2-((2,3-Dihydrobenzo[b][1,4]dioxin-5-yl)oxy)-N-methyl-N-(4,5,6,7-tetrahydrobenzo[d]thiazol-2-yl)acetamide] | 800 | > 125 |  | 
20 | CC1(C)Cc2cccc(OCC(=O)Nc3ccc(C(F)(F)F)nc3)c2O1 [Compound 12, 2-((2,2-Dimethyl-2,3-dihydrobenzofuran-7-yl)oxy)-N-(6-(trifluoromethyl)pyridin-3-yl)acetamide] | > 25000 | > 100 | 51 | > 100
21 | CC1(C)Cc2cccc(OCC(=O)Nc3cccc4nccnc34)c2O1 [Compound 13, 2-((2,2-Dimethyl-2,3-dihydrobenzofuran-7-yl)oxy)-N-(quinoxalin-5-yl) acetamide] | > 25000 | > 100 | 63 | > 100
22 | Cc1ccc(NC(=O)COc2cccc3c2OC(C)(C)C3)nc1C [Compound 73, 2-((2,2-Dimethyl-2,3-dihydrobenzofuran-7-yl)oxy)-N-(5,6-dimethylpyridin-2-yl)acetamide] | 210 | > 100 |  | 
23 | CN(C(=O)COc1cccc2c1OC(C)(C)C2)c1ccc(Cl)nn1 [Compound 81, N-(6-Chloropyridazin-3-yl)-2-((2,2-dimethyl-2,3-dihydrobenzofuran-7-yl)oxy)-N-methylacetamide] | > 25000 | > 125 | 67 | > 125
24 | CC1(C)Cc2cccc(CCC(=O)N(Cc3ccccn3)c3nc4c(s3)CCCC4)c2O1 [Compound 104, 3-(2,2-Dimethyl-2,3-dihydrobenzofuran-7-yl)-N-(pyridin-2-ylmethyl)-N-(4,5,6,7-tetrahydrobenzo[d]thiazol-2-yl)propanamide] | 1100 | > 125 |  | 
25 | CCc1ccc(NC(=O)COc2cccc3c2OC(C)(C)C3)nc1 [Compound 68, 2-((2,2-dimethyl-2,3-dihydrobenzofuran-7-yl)oxy)-N-(5-ethylpyridin-2-yl)acetamide] | 540 | > 125 |  | 
26 | COc1ccccc1OCC(=O)Nc1nc2c(F)cccc2s1 [Compound 192, N-(4-Fluorobenzo[d]thiazol-2-yl)-2-(2-methoxyphenoxy)acetamide] | 1800 | > 10 |  | 
27 | CC1(C)Cc2cccc(OCC(=O)Nc3nc4ccc(F)cc4s3)c2O1 [Compound 183, 2-((2,2-Dimethyl-2,3-dihydrobenzofuran-7-yl)oxy)-N-(6-fluorobenzo[d]thiazol-2-yl)acetamide] | 4200 | > 100 |  | 
28 | Cc1cnc(NC(=O)COc2cccc3c2OC(C)(C)C3)s1 [Compound 182, 2-((2,2-Dimethyl-2,3-dihydrobenzofuran-7-yl)oxy)-N-(5-methylthiazol-2-yl) acetamide] | 370 | 69 |  | 
29 | Cc1csc(N(Cc2ncccn2)C(=O)COc2cccc3c2OC(C)(C)C3)n1 [Compound 43, 2-((2,2-Dimethyl-2,3-dihydrobenzofuran-7-yl)oxy)-N-(4-methylthiazol-2-yl)-N-(pyrimidin-2-ylmethyl)acetamide] | 710 | > 100 |  | 
30 | CC1(C)Cc2cccc(OCC(=O)Nc3nc4c(s3)CCCC4)c2O1 [Compound 195, 2-((2,2-Dimethyl-2,3-dihydrobenzofuran-7-yl)oxy)-N-(4,5,6,7-tetrahydrobenzo[d]thiazol-2-yl)acetamide] | 53 | > 125 |  | 
31 | Cc1cccc(OCC(=O)N(C)c2nc3c(s2)CCCC3)c1F [Compound 113, 2-(2-Fluoro-3-methylphenoxy)-N-methyl-N-(4,5,6,7-tetrahydrobenzo[d]thiazol-2-yl)acetamide] | 550 | > 125 |  | 
32 | CC1(C)Cc2cccc(OCC(=O)Nc3ccc4ccccc4n3)c2O1 [Compound 16, 2-((2,2-Dimethyl-2,3-dihydrobenzofuran-7-yl)oxy)-N-(quinolin-2-yl) acetamide] | 10000 | > 90 |  | 
33 | COc1ccccc1OCC(=O)Nc1nc2c(Br)cccc2s1 [Compound 193, N-(4-Bromobenzo[d]thiazol-2-yl)-2-(2-methoxyphenoxy)acetamide] | > 25000 | > 90 | 58 | > 90
34 | Cc1csc(N(C(=O)COc2cccc3c2OC(C)(C)C3)c2ccncn2)n1 [Compound 96, 2-((2,2-Dimethyl-2,3-dihydrobenzofuran-7-yl)oxy)-N-(4-methylthiazol-2-yl)-N-(pyrimidin-4-yl)acetamide] | > 25000 | > 125 | 32 | > 125
